Measured values taken from PubChem BioAssay (NCI).
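Where inhibition never reached the appropriate level, the endpoint shown equals the highest concentration tested. Otherwise, values were interpolated linearly from a five-concentration, 48-hour dose response in 96-well plates. The concentration for 50% growth inhibition is given as GI50. TGI: concentration producing complete growth inhibition.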

How the values were obtained:
Assay in all cases: growth of human tumour cells (NCI), 48 h
786-0 renal = test system: 786-0 renal
A498 renal = test system: A498 renal
A549 NSCLC = test system: A549 NSCLC
ACHN renal = test system: ACHN renal
BT-549 breast = test system: BT-549 breast
CAKI-1 renal = test system: CAKI-1 renal
CCRF-CEM leukemia = test system: CCRF-CEM leukemia
COLO 205 colon = test system: COLO 205 colon
DU-145 prostate = test system: DU-145 prostate
EKVX NSCLC = test system: EKVX NSCLC
HCC-2998 colon = test system: HCC-2998 colon
HCT-116 colon = test system: HCT-116 colon
HCT-15 colon = test system: HCT-15 colon
HL-60(TB) leukemia = test system: HL-60(TB) leukemia
HOP-62 NSCLC = test system: HOP-62 NSCLC
HOP-92 NSCLC = test system: HOP-92 NSCLC
HS 578T breast = test system: HS 578T breast
HT29 colon = test system: HT29 colon
IGROV1 ovarian = test system: IGROV1 ovarian
KM12 colon = test system: KM12 colon
LOX IMVI melanoma = test system: LOX IMVI melanoma
M14 melanoma = test system: M14 melanoma
MALME-3M melanoma = test system: MALME-3M melanoma
MCF7 breast = test system: MCF7 breast
MDA-MB-231 breast = test system: MDA-MB-231 breast
MDA-MB-435 = test system: MDA-MB-435
MOLT-4 leukemia = test system: MOLT-4 leukemia
NCI-H226 lung = test system: NCI-H226 lung
NCI-H460 lung = test system: NCI-H460 lung
NCI-H522 lung = test system: NCI-H522 lung
NCI/ADR-RES ovarian = test system: NCI/ADR-RES ovarian
OVCAR-3 ovarian = test system: OVCAR-3 ovarian
OVCAR-4 ovarian = test system: OVCAR-4 ovarian
OVCAR-5 ovarian = test system: OVCAR-5 ovarian
OVCAR-8 ovarian = test system: OVCAR-8 ovarian
PC-3 prostate = test system: PC-3 prostate
RPMI-8226 leukemia = test system: RPMI-8226 leukemia
RXF 393 renal = test system: RXF 393 renal
SF-268 CNS = test system: SF-268 CNS
SF-295 CNS = test system: SF-295 CNS
SF-539 CNS = test system: SF-539 CNS
SK-MEL-2 melanoma = test system: SK-MEL-2 melanoma
SK-MEL-28 melanoma = test system: SK-MEL-28 melanoma
SK-MEL-5 melanoma = test system: SK-MEL-5 melanoma
SK-OV-3 ovarian = test system: SK-OV-3 ovarian
SN12C renal = test system: SN12C renal
SNB-19 CNS = test system: SNB-19 CNS
SNB-75 CNS = test system: SNB-75 CNS
SR leukemia = test system: SR leukemia
SW-620 colon = test system: SW-620 colon
T-47D breast = test system: T-47D breast
TK-10 renal = test system: TK-10 renal
U251 CNS = test system: U251 CNS
UACC-257 melanoma = test system: UACC-257 melanoma
UACC-62 melanoma = test system: UACC-62 melanoma
UO-31 renal = test system: UO-31 renal

Compound `COc1cc2c3c(n(CCCNCC4CC4)c(=O)c2cc1OC)-c1cc2c(cc1C3=O)OCO2` has a GI50 (786-0 renal) of 1440 nM, a TGI (786-0 renal) of 2810 nM and a GI50 (A498 renal) of 12600 nM. The TGI (A498 renal) was 25400 nM, the GI50 (A549 NSCLC) was 1220 nM and the TGI (A549 NSCLC) was 2570 nM. The GI50 (ACHN renal) was 439 nM, the TGI (ACHN renal) was 1570 nM and the GI50 (BT-549 breast) was 12700 nM. It also gave a TGI (BT-549 breast) of 26700 nM, a GI50 (CAKI-1 renal) of 990 nM and a TGI (CAKI-1 renal) of 2150 nM. It also gave a GI50 (CCRF-CEM leukemia) of 82 nM, a TGI (CCRF-CEM leukemia) of 2700 nM and a GI50 (COLO 205 colon) of 1110 nM. The TGI (COLO 205 colon) was 4210 nM, the GI50 (DU-145 prostate) was 759 nM and the TGI (DU-145 prostate) was 2110 nM. The GI50 (EKVX NSCLC) was 1780 nM, the TGI (EKVX NSCLC) was 3480 nM and the GI50 (HCC-2998 colon) was 1240 nM. It also gave a TGI (HCC-2998 colon) of 2550 nM, a GI50 (HCT-116 colon) of 1140 nM and a TGI (HCT-116 colon) of 2540 nM. It also gave a GI50 (HCT-15 colon) of 1250 nM, a TGI (HCT-15 colon) of 2800 nM and a GI50 (HL-60(TB) leukemia) of 1470 nM. It also gave a TGI (HL-60(TB) leukemia) of 3250 nM, a GI50 (HOP-62 NSCLC) of 354 nM and a TGI (HOP-62 NSCLC) of 1600 nM. The GI50 (HOP-92 NSCLC) was 9320 nM, the TGI (HOP-92 NSCLC) was 21900 nM and the GI50 (HS 578T breast) was 18800 nM. It also gave a TGI (HS 578T breast) of 59600 nM, a GI50 (HT29 colon) of 1060 nM and a TGI (HT29 colon) of 2320 nM. For the same compound, the GI50 (IGROV1 ovarian) was 1160 nM, the TGI (IGROV1 ovarian) was 2750 nM and the GI50 (KM12 colon) was 1370 nM. It also gave a TGI (KM12 colon) of 3120 nM, a GI50 (LOX IMVI melanoma) of 349 nM and a TGI (LOX IMVI melanoma) of 1890 nM. It also gave a GI50 (M14 melanoma) of 1090 nM, a TGI (M14 melanoma) of 2380 nM and a GI50 (MALME-3M melanoma) of 1490 nM. The TGI (MALME-3M melanoma) was 2970 nM, the GI50 (MCF7 breast) was 95.3 nM and the TGI (MCF7 breast) was 1690 nM. The GI50 (MDA-MB-231 breast) was 1440 nM, the TGI (MDA-MB-231 breast) was 3110 nM and the GI50 (MDA-MB-435) was 1290 nM. The TGI (MDA-MB-435) was 2570 nM, the GI50 (MOLT-4 leukemia) was 38.5 nM and the TGI (MOLT-4 leukemia) was 1540 nM. For the same compound, the GI50 (NCI-H226 lung) was 10700 nM, the TGI (NCI-H226 lung) was 28700 nM and the GI50 (NCI-H460 lung) was 243 nM. The TGI (NCI-H460 lung) was 1460 nM, the GI50 (NCI-H522 lung) was 492 nM and the TGI (NCI-H522 lung) was 2100 nM. It also gave a GI50 (NCI/ADR-RES ovarian) of 1070 nM, a TGI (NCI/ADR-RES ovarian) of 2890 nM and a GI50 (OVCAR-3 ovarian) of 1420 nM. The TGI (OVCAR-3 ovarian) was 2840 nM, the GI50 (OVCAR-4 ovarian) was 1730 nM and the TGI (OVCAR-4 ovarian) was 3350 nM. It also gave a GI50 (OVCAR-5 ovarian) of 1740 nM, a TGI (OVCAR-5 ovarian) of 3290 nM and a GI50 (OVCAR-8 ovarian) of 1110 nM. For the same compound, the TGI (OVCAR-8 ovarian) was 2660 nM, the GI50 (PC-3 prostate) was 1210 nM and the TGI (PC-3 prostate) was 2840 nM. The GI50 (RPMI-8226 leukemia) was 636 nM, the TGI (RPMI-8226 leukemia) was 3310 nM and the GI50 (RXF 393 renal) was 1490 nM. It also gave a TGI (RXF 393 renal) of 2830 nM, a GI50 (SF-268 CNS) of 764 nM and a TGI (SF-268 CNS) of 2490 nM. It also gave a GI50 (SF-295 CNS) of 307 nM, a TGI (SF-295 CNS) of 1530 nM and a GI50 (SF-539 CNS) of 763 nM. The TGI (SF-539 CNS) was 2080 nM, the GI50 (SK-MEL-2 melanoma) was 20800 nM and the TGI (SK-MEL-2 melanoma) was 35200 nM. It also gave a GI50 (SK-MEL-28 melanoma) of 14800 nM, a TGI (SK-MEL-28 melanoma) of 28800 nM and a GI50 (SK-MEL-5 melanoma) of 10100 nM. For the same compound, the TGI (SK-MEL-5 melanoma) was 21800 nM, the GI50 (SK-OV-3 ovarian) was 1050 nM and the TGI (SK-OV-3 ovarian) was 7630 nM. For the same compound, the GI50 (SN12C renal) was 1370 nM, the TGI (SN12C renal) was 3230 nM and the GI50 (SNB-19 CNS) was 781 nM. For the same compound, the TGI (SNB-19 CNS) was 2470 nM, the GI50 (SNB-75 CNS) was 1740 nM and the TGI (SNB-75 CNS) was 19600 nM. The GI50 (SR leukemia) was 70.8 nM, the TGI (SR leukemia) was 1230 nM and the GI50 (SW-620 colon) was 573 nM. It also gave a TGI (SW-620 colon) of 2190 nM, a GI50 (T-47D breast) of 7130 nM and a TGI (T-47D breast) of 25700 nM. It also gave a GI50 (TK-10 renal) of 15600 nM, a TGI (TK-10 renal) of 29200 nM and a GI50 (U251 CNS) of 473 nM. The TGI (U251 CNS) was 1890 nM, the GI50 (UACC-257 melanoma) was 13600 nM and the TGI (UACC-257 melanoma) was 26700 nM. The GI50 (UACC-62 melanoma) was 2860 nM, the TGI (UACC-62 melanoma) was 21100 nM and the GI50 (UO-31 renal) was 1410 nM. It also gave a TGI (UO-31 renal) of 2790 nM.
